One test concerns P-P70S6K (T389). As to the kind of experiment: Cell based AlphaLISA assay, inhibition of P-P70S6K (T389) in MDA-MB-468 cells. The note with it: Homo sapiens, 4 h, 0.017-1,000 nM, two to four hours at 37° C., AlphaLisa SureFire Ultra, read-out: pIC50 for Inhibition of mTORC1 and mTORC2 Substrate Phosphorylation, p-P70S6K-(T389) (converted). Summed up:
(§1)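 mTORC1 and mTORC2 activity in cells tracked through AlphaLISA SureFire Ultra detection of the phosphoproteins after incubation and cell lysis; Alpha signal read in duplicate. IC50 from normalized concentration–response regression with control-based normalization.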

The subject of another test is P-4E-BP1 (T37/46). As to the kind of experiment: Cell based AlphaLISA assay, inhibition of P-4E-BP1 (T37/46) in MDA-MB-468 cells. The settings on record: Homo sapiens, 4 h, 0.017-1,000 nM, two to four hours at 37° C., AlphaLisa SureFire Ultra, read-out: pIC50 for Inhibition of mTORC1 and mTORC2 Substrate Phosphorylation, p-4E-BP1-(T37/46) (converted). Summed up:
as §1
(In general: In Alpha technology, singlet oxygen from a donor bead excites a nearby acceptor bead.)

A further test concerns P-Akt (S473). As to the kind of experiment: Cell based AlphaLISA assay, inhibition of P-Akt (S473) in MDA-MB-468 cells. The settings on record: Homo sapiens, 4 h, 0.017-1,000 nM, two to four hours at 37° C., AlphaLisa SureFire Ultra, read-out: pIC50 for Inhibition of mTORC1 and mTORC2 Substrate Phosphorylation, p-AKT1/2/3-(S473) (converted). Summed up:
as §1

Consider eleven compounds from US12187746B2, “C26-linked rapamycin analogs as mTOR inhibitors” (Revolution Medicines, Inc., priority 2018, dated 2025).

For the compound `CO[C@H]1C[C@@H]2CC[C@@H](C)[C@@](O)(O2)C(=O)C(=O)N2CCCC[C@H]2C(=O)O[C@H]([C@H](C)C[C@@H]2CC[C@@H](O)[C@H](OC)C2)C[C@@H](O)[C@H](C)/C=C(\C)[C@@H](O)[C@@H](OC)C(=NOCC(=O)N2CCc3nc(N4CCN(C(=O)CCOCCN5CCN(c6ncc(C(=O)N7CCc8cc(Cn9nc(-c%10ccc%11oc(N)nc%11c%10)c%10c(N)ncnc%109)ccc8C7)cn6)CC5)CC4)ncc3C2)[C@H](C)C[C@H](C)/C=C/C=C/C=C/1C` [Example 57], the IC50 is less than 1 nM with P-P70S6K (T389), 3.16 to 31.6 nM in the test with P-4E-BP1 (T37/46) and more than 1000 nM with P-Akt (S473).
With `CO[C@H]1C[C@@H]2CC[C@@H](C)[C@@](O)(O2)C(=O)C(=O)N2CCCC[C@H]2C(=O)O[C@H]([C@H](C)C[C@@H]2CC[C@@H](O)[C@H](OC)C2)C[C@@H](O)[C@H](C)/C=C(\C)[C@@H](O)[C@@H](OC)C(=NOCC(=O)NCc2cnc(N3CCN(CCOCCN4CCN(c5ncc(C(=O)N6CCc7cc(Cn8nc(-c9ccc%10oc(N)nc%10c9)c9c(N)ncnc98)ccc7C6)cn5)CC4)CC3)nc2)[C@H](C)C[C@H](C)/C=C/C=C/C=C/1C` [Example 59], the IC50 in the test with P-P70S6K (T389) is less than 1 nM; in the test on P-4E-BP1 (T37/46), 3.16 to 31.6 nM; in the test with P-Akt (S473), more than 1000 nM.
As to `CO[C@H]1C[C@@H]2CC[C@@H](C)[C@@](O)(O2)C(=O)C(=O)N2CCCC[C@H]2C(=O)O[C@H]([C@H](C)C[C@@H]2CC[C@@H](O)[C@H](OC)C2)C[C@@H](O)[C@H](C)/C=C(\C)[C@@H](O)[C@@H](OC)C(=NOCC(=O)N2CCc3nc(N4CCN(CCOCCN5CCN(c6ncc(C(=O)N7CCc8cc(Cn9nc(-c%10ccc%11oc(N)nc%11c%10)c%10c(N)ncnc%109)ccc8C7)cn6)CC5)CC4)ncc3C2)[C@H](C)C[C@H](C)/C=C/C=C/C=C/1C` [Example 61], the IC50 with P-P70S6K (T389) is 1 to 10 nM; in the test with P-4E-BP1 (T37/46), 3.16 to 31.6 nM; in the test on P-Akt (S473), more than 1000 nM.
The like results for `CO[C@H]1C[C@@H]2CC[C@@H](C)[C@@](O)(O2)C(=O)C(=O)N2CCCC[C@H]2C(=O)O[C@H]([C@H](C)C[C@@H]2CC[C@@H](O)[C@H](OC)C2)C[C@@H](O)[C@H](C)/C=C(\C)[C@@H](O)[C@@H](OC)C(=NOCC(=O)NCc2cnc(N3CCN(C(=O)CCOCCN4CCC(N5CCC(C(=O)N6CCc7cc(Cn8nc(-c9ccc%10oc(N)nc%10c9)c9c(N)ncnc98)ccc7C6)CC5)CC4)CC3)nc2)[C@H](C)C[C@H](C)/C=C/C=C/C=C/1C` [Example 63] were, in that order, less than 1 nM, 3.16 to 31.6 nM and more than 1000 nM.
Consider `CO[C@H]1C[C@@H]2CC[C@@H](C)[C@@](O)(O2)C(=O)C(=O)N2CCCC[C@H]2C(=O)O[C@H]([C@H](C)C[C@@H]2CC[C@@H](O)[C@H](OC)C2)C[C@@H](O)[C@H](C)/C=C(\C)[C@@H](O)[C@@H](OC)C(=NOCC(=O)NCc2cnc(N3CCN(C(=O)CCCN4CCN(c5ncc(C(=O)N6CCc7cc(Cn8nc(-c9ccc%10oc(N)nc%10c9)c9c(N)ncnc98)ccc7C6)cn5)CC4)CC3)nc2)[C@H](C)C[C@H](C)/C=C/C=C/C=C/1C` [Example 65], for which the values for the IC50 with P-P70S6K (T389), in the test on P-4E-BP1 (T37/46) and with P-Akt (S473) were 1 to 10 nM, 3.16 to 31.6 nM and more than 1000 nM, respectively.
As for `CO[C@H]1C[C@@H]2CC[C@@H](C)[C@@](O)(O2)C(=O)C(=O)N2CCCC[C@H]2C(=O)O[C@H]([C@H](C)C[C@@H]2CC[C@@H](O)[C@H](OC)C2)C[C@@H](O)[C@H](C)/C=C(\C)[C@@H](O)[C@@H](OC)C(=NOCC(=O)NCc2cnc(N3CCN(C(=O)CCCN4CCN(c5ncc(C(=O)N6CCC(n7nc(-c8ccc9oc(N)nc9c8)c8c(N)ncnc87)CC6)cn5)CC4)CC3)nc2)[C@H](C)C[C@H](C)/C=C/C=C/C=C/1C` [Example 66], the IC50 with P-P70S6K (T389) is 1 to 10 nM; in the test with P-4E-BP1 (T37/46), more than 1000 nM; in the test with P-Akt (S473), more than 1000 nM.
Regarding `CO[C@H]1C[C@@H]2CC[C@@H](C)[C@@](O)(O2)C(=O)C(=O)N2CCCC[C@H]2C(=O)O[C@H]([C@H](C)C[C@@H]2CC[C@@H](O)[C@H](OC)C2)CC[C@H](C)/C=C(\C)[C@@H](O)[C@@H](OC)C(=NOCC(=O)NCCOCCOCCOCCOCCOCCOCCOCCOCCC(=O)N2CCc3cc(Cn4nc(-c5ccc6oc(N)nc6c5)c5c(N)ncnc54)ccc3C2)[C@H](C)C[C@H](C)/C=C/C=C/C=C/1C` [Example 67], the IC50 is less than 1 nM with P-P70S6K (T389), less than 3.16 nM in the test on P-4E-BP1 (T37/46) and 31.6 to 1000 nM in the test with P-Akt (S473).
With `CO[C@H]1C[C@@H]2CC[C@@H](C)[C@@](O)(O2)C(=O)C(=O)N2CCCC[C@H]2C(=O)O[C@H]([C@H](C)C[C@@H]2CC[C@@H](O)[C@H](OC)C2)C[C@@H](O)[C@H](C)/C=C(\C)[C@@H](O)[C@@H](OC)C(=NOCC(=O)NC2CCN(CC(=O)NCCOCCOCCOCCOCCOCCOCCC(=O)N3CCc4cc(Cn5nc(-c6ccc7oc(N)nc7c6)c6c(N)ncnc65)ccc4C3)CC2)[C@H](C)C[C@H](C)/C=C/C=C/C=C/1C` [Example 68], the IC50 in the test with P-P70S6K (T389) was 1 to 10 nM; in the test on P-4E-BP1 (T37/46), 3.16 to 31.6 nM; with P-Akt (S473), 31.6 to 1000 nM.
With `CO[C@H]1C[C@@H]2CC[C@@H](C)[C@@](O)(O2)C(=O)C(=O)N2CCCC[C@H]2C(=O)O[C@H]([C@H](C)C[C@@H]2CC[C@@H](O)[C@H](OC)C2)C[C@@H](O)[C@H](C)/C=C(\C)[C@@H](O)[C@@H](OC)C(=NOCC(=O)NCCOCCOCCOCCOCCOCCOCCC(=O)NC2CCN(CC(=O)N3CCc4cc(Cn5nc(-c6ccc7oc(N)nc7c6)c6c(N)ncnc65)ccc4C3)CC2)[C@H](C)C[C@H](C)/C=C/C=C/C=C/1C` [Example 69], the IC50 is 1 to 10 nM in the test with P-P70S6K (T389), 3.16 to 31.6 nM in the test with P-4E-BP1 (T37/46) and more than 1000 nM in the test on P-Akt (S473).
The like results for `CC(C)n1nc(-c2ccc3oc(N)nc3c2)c2c(N)ncnc21` [MLN-128, MLN0128, reference compound] were, in that order, 1 to 10 nM, 3.16 to 31.6 nM and 3.16 to 31.6 nM.
The like results for `CO[C@H]1C[C@@H]2CC[C@@H](C)[C@@](O)(O2)C(=O)C(=O)N2CCCC[C@H]2C(=O)O[C@H]([C@H](C)C[C@@H]2CC[C@@H](O)[C@H](OC)C2)CC(=O)[C@H](C)/C=C(\C)[C@@H](O)[C@@H](OC)C(=O)[C@H](C)C[C@H](C)/C=C/C=C/C=C/1C` [Rapamycin, (3S,6R,7E,9R, 10R, 12R, 14S, 15E, 17E, 19E,21S,23S,26R,27R,34aS)-9, 10, 12, 13, 14,21,22,23,24,25,26,27,32,33,34,34a-hexadecahydro-9,27-dihydroxy-3-[(1R)-2-[(1 S,3 R,4R)-4-hydroxy-3-methoxycyclohexyl]-1-methylethyl]-10,21-dimethoxy-6,8,12,14,20,26-hexamethyl-23,27-epoxy-3H-pyrido[2,1-c][1,4]-oxaazacyclohentriacontine-1,5,11,28,29(4H,6H,31H)-pentone] were, in that order, less than 1 nM, more than 1000 nM and more than 1000 nM.
